The numbers were not newly measured in patent US12337056B2, “Topical compositions and methods” (MARY KAY INC., priority 2018, dated 2025), which cites them from elsewhere.

For this series the following is noted: HyaClear Solution Presentation, Tri-K Industries, 2016.

For the substance Sodium hyaluronate, the skin barrier function result is on record as “improve skin barrier function”, the skin desquamation result is given as “reduce skin desquamation”, the skin lubricity result is “increase skin lubricity” and the skin moisturization entry was “increase skin moisturization”. For the same substance, the skin roughness result is recorded as “reduce skin roughness”.
